Laboratory results taken from ChEMBL document CHEMBL1201862, “PubChem BioAssay data set” (2004).
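Where inhibition never reached the appropriate level, the endpoint shown equals the highest concentration tested. Otherwise, values were interpolated linearly from a five-concentration, 48-hour dose response in 96-well plates. At the GI50, growth is halved.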 Active and inactive are the calls of the source. No stated cut-off is given here; in the data, active = GI50 up to about 1.1 µM and inactive = higher.

How the values were obtained:
Test in all cases: NCI tumour cell line growth inhibition, 48 h
EKVX = test system: EKVX
ACHN = test system: ACHN
A549 = test system: A549
CAKI-1 = test system: CAKI-1
786-0 = test system: 786-0
OVCAR-8 = test system: OVCAR-8
SR = test system: SR
IGROV-1 = test system: IGROV-1
HT-29 = test system: HT-29
SW-620 = test system: SW-620
HCT-116 = test system: HCT-116
SNB-75 = test system: SNB-75
OVCAR-5 = test system: OVCAR-5
SNB-19 = test system: SNB-19
RXF 393 = test system: RXF 393
T47D = test system: T47D
TK-10 = test system: TK-10
NCI-H226 = test system: NCI-H226
MDA-MB-231 = test system: MDA-MB-231

SMILES | GI50 (EKVX) | GI50 (ACHN) | GI50 (A549) | GI50 (CAKI-1) | GI50 (786-0) | GI50 (OVCAR-8) | GI50 (SR) | GI50 (IGROV-1) | GI50 (HT-29) | GI50 (SW-620) | GI50 (HCT-116) | GI50 (SNB-75) | GI50 (OVCAR-5) | GI50 (SNB-19) | GI50 (RXF 393) | GI50 (T47D) | GI50 (TK-10) | GI50 (NCI-H226) | GI50 (MDA-MB-231)
CCOC(=O)/C=C1\Nc2ccccc2C(c2ccccc2)=NC1OC(C)=O (stereo not drawn) | > 100 µM (inactive) | > 100 µM (inactive) | > 100 µM (inactive) | 94.6 µM (inactive) | > 100 µM (inactive) | > 100 µM (inactive) | 99.1 µM (inactive) | > 100 µM (inactive) | 57.5 µM (inactive) | > 100 µM (inactive) | > 100 µM (inactive) | 31.9 µM (inactive) |  |  |  |  |  |  | 
CCOC(=O)C(C(=O)OCC)=C1NC2(c3ccccc3Nc3ccc(C)cc32)C(C(=O)OC)S1 (stereo not drawn) | 8.36 µM (inactive) | 21.4 µM (inactive) | 13.7 µM (inactive) | 8.69 µM (inactive) | 22.9 µM (inactive) | 29.4 µM (inactive) | 6.34 µM (inactive) | 18.4 µM (inactive) | 23.9 µM (inactive) | 48.6 µM (inactive) | 9.64 µM (inactive) | 14.9 µM (inactive) | 20.9 µM (inactive) | 55.3 µM (inactive) | 7.18 µM (inactive) | 3.96 µM (inactive) | 46.9 µM (inactive) | 29.9 µM (inactive) | 
CN1B(c2ccccc2)N(C)C(=O)N(C)C1=O | > 100 µM (inactive) | > 100 µM (inactive) | > 100 µM (inactive) | 52.2 µM (inactive) | > 100 µM (inactive) | > 100 µM (inactive) |  | > 100 µM (inactive) | > 100 µM (inactive) | > 100 µM (inactive) | > 100 µM (inactive) | 18.4 µM (inactive) | > 100 µM (inactive) | > 100 µM (inactive) | > 100 µM (inactive) | > 100 µM (inactive) | > 100 µM (inactive) | > 100 µM (inactive) | 
O=C1c2c(Br)sc(Br)c2C(=O)C1(O)O | 53.6 µM (inactive) | 31.8 µM (inactive) | > 100 µM (inactive) | 18.6 µM (inactive) | 34 µM (inactive) | 35.7 µM (inactive) | 24.1 µM (inactive) | > 100 µM (inactive) | 39.3 µM (inactive) | 35.6 µM (inactive) | 19.7 µM (inactive) | 36.4 µM (inactive) | 23.7 µM (inactive) | > 100 µM (inactive) | 19.1 µM (inactive) | 21.8 µM (inactive) | 72.3 µM (inactive) | > 100 µM (inactive) | 
COC(=O)C1C(O)C(C(=O)OC)C(C)N(C)C1C (stereo not drawn) | > 100 µM (inactive) | > 100 µM (inactive) | > 100 µM (inactive) | > 100 µM (inactive) | > 100 µM (inactive) | > 100 µM (inactive) | > 100 µM (inactive) | > 100 µM (inactive) | > 100 µM (inactive) | > 100 µM (inactive) | > 100 µM (inactive) |  | > 100 µM (inactive) | > 100 µM (inactive) | > 100 µM (inactive) |  | > 100 µM (inactive) | > 100 µM (inactive) | > 100 µM (inactive)
CCOc1cc2c(cc1O)/C(=N\OC)C[C@@H]1[C@@H]2CC[C@]2(C)[C@@H](O)CC[C@@H]12 | 10.8 µM (inactive) | 1.09 µM (active) | 0.542 µM (active) |  | < 0.0403 µM (active) | 0.217 µM (active) | 0.0127 µM (active) | 0.923 µM (active) | 3.81 µM (inactive) | 0.212 µM (active) | < 0.0296 µM (active) | 0.0219 µM (active) | 21.6 µM (inactive) | 2.11 µM (inactive) | < 0.01 µM (active) |  | > 32.9 µM (inactive) | 0.106 µM (active) | 0.685 µM (active)
CC(C)c1ccc(C(O)(C(=O)O)c2ccc(C(C)C)cc2)cc1 | 51.8 µM (inactive) | 40.2 µM (inactive) | 33.1 µM (inactive) | 45.8 µM (inactive) | 51.2 µM (inactive) | 54.1 µM (inactive) | 60.8 µM (inactive) | 55.7 µM (inactive) | 48.9 µM (inactive) | 61.8 µM (inactive) | 36.6 µM (inactive) | 42.7 µM (inactive) | > 100 µM (inactive) | 45 µM (inactive) | 61.9 µM (inactive) | 43.2 µM (inactive) | 79.3 µM (inactive) | 24.5 µM (inactive) | 
CC1=NN(c2nc(N)nc(C(C)Sc3cc(Cl)c(C)cc3S(N)(=O)=O)n2)C(C)(C)C1 (stereo not drawn) | > 10 µM (inactive) | > 10 µM (inactive) | > 10 µM (inactive) | > 10 µM (inactive) | > 10 µM (inactive) | > 10 µM (inactive) | > 10 µM (inactive) | > 10 µM (inactive) | > 10 µM (inactive) | > 10 µM (inactive) | > 10 µM (inactive) | > 10 µM (inactive) | > 10 µM (inactive) | > 10 µM (inactive) | > 10 µM (inactive) | > 10 µM (inactive) | > 10 µM (inactive) | > 10 µM (inactive) | 
CN(C(=O)C1(C(=O)C=[N+]=[N-])CC1)c1ccccc1 | > 100 µM (inactive) | > 100 µM (inactive) | > 100 µM (inactive) |  | > 100 µM (inactive) | > 100 µM (inactive) | > 100 µM (inactive) | > 100 µM (inactive) | > 100 µM (inactive) | > 100 µM (inactive) | > 100 µM (inactive) | > 100 µM (inactive) | > 100 µM (inactive) | > 100 µM (inactive) | > 100 µM (inactive) |  | > 100 µM (inactive) | > 100 µM (inactive) | > 100 µM (inactive)
CN(C)CCNC(=O)c1cccc2c(NC(CCC(N)=O)C(=O)O)c3ccccc3nc12 (stereo not drawn) | 14.5 µM (inactive) | 3.37 µM (inactive) | 5.08 µM (inactive) | 11.3 µM (inactive) | 9.84 µM (inactive) | 9.18 µM (inactive) | > 100 µM (inactive) | 5.25 µM (inactive) | 4.67 µM (inactive) | 4.55 µM (inactive) | 6.03 µM (inactive) | 13.4 µM (inactive) | 9.51 µM (inactive) | 3.49 µM (inactive) |  |  | 34.1 µM (inactive) | 4.95 µM (inactive) | 7.66 µM (inactive)
CC(NC(=O)C(N)Cc1ccc(O)cn1)C(=O)O (stereo not drawn) | > 100 µM (inactive) | > 100 µM (inactive) | > 100 µM (inactive) | > 100 µM (inactive) | > 100 µM (inactive) | > 100 µM (inactive) | > 100 µM (inactive) | > 100 µM (inactive) | > 100 µM (inactive) | > 100 µM (inactive) | > 100 µM (inactive) |  | > 100 µM (inactive) | > 100 µM (inactive) | > 100 µM (inactive) |  | > 100 µM (inactive) | > 100 µM (inactive) | > 100 µM (inactive)
C#Cc1cc(-c2nc3ccccc3s2)ccc1N | 19.1 µM (inactive) | 24 µM (inactive) | 16.3 µM (inactive) | 20.5 µM (inactive) | 34.4 µM (inactive) | 29.2 µM (inactive) | 25.1 µM (inactive) | 0.615 µM (active) | 18 µM (inactive) | 34.6 µM (inactive) | 16.6 µM (inactive) |  | 32 µM (inactive) | 20 µM (inactive) | 25.8 µM (inactive) | 14.5 µM (inactive) | 15.1 µM (inactive) | 12.4 µM (inactive) | 
